The text below walks through data of PubChem BioAssay (NCI).

Some test systems named below: MDA-MB-231 breast; T-47D breast; SNB-19 CNS; CAKI-1 renal; 786-0 renal; OVCAR-4 ovarian; MOLT-4 leukemia; RPMI-8226 leukemia; HT29 colon; HCC-2998 colon.
Common to all, as to experiment: growth of human tumour cells (NCI), 48 h

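Results reflect a 48-hour exposure of cells in 96-well plates to compound at five concentrations. At the GI50, growth is halved. TGI denotes the concentration required for complete inhibition of growth.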 A value given as a limit tells only on which side of the number the result lay.

With `Fc1ccc2c(c1)C1=C(CO2)C(c2ccc(Cl)cc2)NC(=S)N1` (configuration not stated), the GI50 is 18.8 µM in the assay on MDA-MB-231 breast; 63.2 µM in the assay with T-47D breast; 44.1 µM in the assay with SNB-19 CNS; 19.1 µM in the assay on CAKI-1 renal; 21.3 µM with 786-0 renal; 51.9 µM in the assay on OVCAR-4 ovarian. Also, the GI50 in the assay on MOLT-4 leukemia was 39.5 µM; in the assay on RPMI-8226 leukemia it was 11.1 µM; in the assay with HT29 colon, 51.3 µM. Moreover, the TGI is 55.7 µM with MDA-MB-231 breast; > 100 µM in the assay with T-47D breast; > 100 µM with SNB-19 CNS; 59.6 µM in the assay on CAKI-1 renal; 46 µM in the assay on 786-0 renal; > 100 µM in the assay on OVCAR-4 ovarian. In addition, the TGI was > 100 µM in the assay with MOLT-4 leukemia, 34.5 µM in the assay with RPMI-8226 leukemia and > 100 µM in the assay on HT29 colon.

On to `c1ccc(B2OCC(C3OB(c4ccccc4)OC4COB(c5ccccc5)OC43)O2)cc1` (configuration not stated), for which the TGI in the assay with MDA-MB-231 breast, with T-47D breast, in the assay with SNB-19 CNS, in the assay on CAKI-1 renal, in the assay with 786-0 renal and in the assay on OVCAR-4 ovarian was > 100 µM throughout. Further, the TGI with MOLT-4 leukemia, in the assay on RPMI-8226 leukemia and with HT29 colon was > 100 µM in each case.

As to `Cc1cc(N(CCCNc2ccnc3cc(Cl)ccc23)Cc2ccc3c(c2)OCO3)nc(N2CCCCC2)n1`, the GI50 with MDA-MB-231 breast is 1.88 µM; in the assay on T-47D breast it was 1.99 µM; with SNB-19 CNS, 3.47 µM; with 786-0 renal, 1.57 µM; in the assay on OVCAR-4 ovarian, 1.93 µM; with HCC-2998 colon it was 2.09 µM. Besides, the GI50 in the assay on RPMI-8226 leukemia is 1.91 µM; in the assay on HT29 colon it was 1.2 µM. In addition, the TGI in the assay on MDA-MB-231 breast stood at 4.06 µM; in the assay with T-47D breast, 4.82 µM; with SNB-19 CNS, 15.1 µM; in the assay with 786-0 renal, 3.09 µM; in the assay with OVCAR-4 ovarian, 6.45 µM; in the assay with HCC-2998 colon it was 4.79 µM. Further, the TGI in the assay with RPMI-8226 leukemia was determined as 4.93 µM; in the assay on HT29 colon it was 3.02 µM.

With `OCC(CCc1c[nH]c2ccccc12)c1c[nH]c2ccccc12` (configuration not stated), the TGI in the assay on MDA-MB-231 breast stood at 27.6 µM; in the assay on T-47D breast, 35.6 µM; with SNB-19 CNS, 30.5 µM; in the assay with CAKI-1 renal it was 77.4 µM; in the assay with 786-0 renal, 29.5 µM; in the assay on OVCAR-4 ovarian, 42.9 µM. The TGI turned out to be 52.1 µM in the assay with MOLT-4 leukemia, 73.5 µM in the assay on RPMI-8226 leukemia and 30.7 µM in the assay with HT29 colon.

Consider `C=C1C(OC/C=C/COC2O[C@@H]3O[C@@]4(C)CC[C@H]5[C@H](C)CC[C@@H](C2=C)[C@@]35OO4)O[C@@H]2O[C@@]3(C)CC[C@H]4[C@H](C)CC[C@@H]1[C@@]24OO3` (some centres not stated), for which the GI50 with MDA-MB-231 breast is 11.4 µM; in the assay on T-47D breast it was 0.0158 µM; in the assay on SNB-19 CNS it was 30.8 µM; in the assay with CAKI-1 renal it was 1.63 µM; with 786-0 renal, 0.578 µM; in the assay with OVCAR-4 ovarian it was 0.741 µM. Besides, the GI50 was 0.309 µM in the assay on MOLT-4 leukemia and 0.0438 µM with HT29 colon. In addition, the TGI in the assay with MDA-MB-231 breast was 51.3 µM; with T-47D breast it was 21.2 µM; in the assay with SNB-19 CNS, > 100 µM; in the assay with CAKI-1 renal, 21.7 µM; with 786-0 renal it was 18.7 µM; in the assay on OVCAR-4 ovarian, 26.2 µM. The values for the TGI with MOLT-4 leukemia, in the assay with RPMI-8226 leukemia and in the assay on HT29 colon were > 100 µM, 10.6 µM and > 49.2 µM, respectively.

Turning to `CN(C)CCCCn1ccc2c1C(=O)c1c(c(O)c3ccccc3c1O)C2=O`, the GI50 in the assay with MDA-MB-231 breast was 17 µM; in the assay on T-47D breast, 3.77 µM; in the assay with SNB-19 CNS it was 14.6 µM; in the assay with CAKI-1 renal, 4.02 µM; with 786-0 renal, 12.2 µM; in the assay with OVCAR-4 ovarian, 19.6 µM. For the same compound, the GI50 in the assay on RPMI-8226 leukemia is 1.74 µM; in the assay on HT29 colon it was 5.53 µM. Also, the TGI worked out at 95.6 µM in the assay with MDA-MB-231 breast; 22.8 µM in the assay on T-47D breast; 30.5 µM in the assay on SNB-19 CNS; 17.5 µM with CAKI-1 renal; 25.3 µM in the assay with 786-0 renal; 43.1 µM in the assay with OVCAR-4 ovarian. For the same compound, the figures for the TGI in the assay on RPMI-8226 leukemia and in the assay with HT29 colon were 7.52 µM and 18.4 µM, respectively.

For `O=c1oc2c3ccc4cnccc4c3[nH]c2c2ccccc12`, the GI50 is 16.9 µM in the assay on MDA-MB-231 breast; 9.78 µM in the assay on T-47D breast; 18.5 µM in the assay with SNB-19 CNS; 47 µM in the assay with CAKI-1 renal; 4.47 µM in the assay with 786-0 renal; 15.5 µM with OVCAR-4 ovarian. Moreover, the GI50 in the assay on MOLT-4 leukemia was 4.83 µM; in the assay on RPMI-8226 leukemia it was 7.94 µM; in the assay on HT29 colon it was 10.5 µM. Also, the TGI was 38.5 µM with MDA-MB-231 breast; > 100 µM with T-47D breast; > 100 µM in the assay on SNB-19 CNS; > 100 µM in the assay with CAKI-1 renal; 17.6 µM in the assay on 786-0 renal; 31 µM with OVCAR-4 ovarian. Moreover, the TGI was 25.4 µM in the assay on MOLT-4 leukemia, 33.4 µM in the assay with RPMI-8226 leukemia and 37.2 µM in the assay on HT29 colon.

As to `Clc1cc(-c2ccccc2)nc2ccccc12`, the TGI in the assay with MDA-MB-231 breast was > 100 µM; in the assay on T-47D breast, > 100 µM; in the assay with SNB-19 CNS it was > 100 µM; in the assay with CAKI-1 renal, > 100 µM; in the assay with 786-0 renal, > 100 µM; in the assay on OVCAR-4 ovarian, 62.3 µM. The TGI in the assay with MOLT-4 leukemia is 54.6 µM; in the assay with RPMI-8226 leukemia, 59 µM; with HT29 colon, > 100 µM.
